1 compound from patent publication US5498632A, “Esters of acyl carnitines with long-chain aliphatic alcohols and pharmaceutical compositions containing same having antibacterial activity” (Sigma-Tau Industrie Farmaceutiche Riunite S.p.A., priority 1992, dated 1996) can be followed below.

In series [1] the test system is Campylobacter fetus ATCC 27374. As to the kind of experiment: MIC in agar (agar dilution). The format is cell-based. The method, then:
(§1) In this experiment the activity of ST 722 and ST 712 against Campylobacter and Helicobacter was investigated.
(§2) Campylobacter fetus ATCC 27374, Campylobacter coli LI 048, Campylobacter jejuni 84-ISS, and Helicobacter pylori NCTC 11637.
(§3) The culture medium was Columbia agar base supplemented with 7% (V/V) defribinated horse blood (DHB) for Campylobacter strains, and the same medium additioned with Vitox (Oxoid) for Helicobacter strain.
(§4) The Campylobacter and Helicobacter strains, preserved at -80° C. in DHB containing 10% (V/V) glycerol, were thawed and grown, in their respective culture medium, in culture flasks, which were incubated for 48 hours at 37° C. in a 10% CO2 atmosphere. After this first growth cycle, the bacteria were allowed to go through a second growth cycle in the same conditions as above.
(§5) The bacterial "patina" was then harvested by resuspension in 4-5 ml of Mueller-Hinton broth, the turbidity of which was then assessed according to Mc Farland's criteria (BRAY W. E., Clinical Laboratory Methods, 5th Ed. C. V. MOSBY, St. Louis, Mo. 1957).
(§6) The Helicobacter suspension was adjusted to an approximate concentration of 1.0×10^9 and 1.0×10^8 organisms/ml, while the Campylobacter suspension was adjusted to 1.0×10^7 and 1.0×10^6 organisms/ml.
(§7) With a Steers-type multipoint inoculator (STEERS E., FOLTZ E. L., GRAVES S., RIDEN J., 1959. Inocula-replicating apparatus for routine testing of antibacterial susceptibility to antibiotics. Antibiot. Chemoter. 9: 307-311) 1-μl volumes of the above standardized suspensions were spot-transferred into the wells of a 96-well microtiter plate, which had previously been filled with 0.2 ml/well of Mueller-Hinton agar 5% DHB, containing the test substances at different concentrations.
(§8) The plates was then incubated for 48/72 hours at 37° C. in a 10% CO2 atmosphere.
On the technique in general: Agar dilution tests growth on a series of plates holding different concentrations.

Series [2] has as its system Campylobacter coli LI 048. As to the kind of experiment: MIC in agar (agar dilution). The series is classed as cell-based. On the procedure:
as §1, §2, §3, §4, §5, §6, §7, §8

Series [3] has as its system Campylobacter jejuni 84-ISS. The series is described as follows: MIC in agar (agar dilution). The series is classed as cell-based. On the procedure: as §1, §2, §3, §4, §5, §6, §7, §8
In series [4] the test system is Helicobacter pylori NCTC 11637. The series is described as follows: MIC in agar (agar dilution). The format is cell-based. The following applies: for MIC: Helicobacter pylori, NCTC11637. On the procedure:
as §1, §2, §3, §4
The bacterial "patina" was then harvested by resuspension in 4-5 ml of Mueller-Hinton broth, the turbidity of which was then assessed according to Mc Farland's criteria (BRAY W. E., Clinical Laboratory Methods, 5th Ed. C. V. MOSBY, St. Louis, Mo. 1957). […]
as §7, §8

Series [5] has as its system Streptococcus faecalis (R 2). The series is described as follows: MIC in broth, Gram+ strains. The format is cell-based. The following applies: Enterococcus faecalis; S. faecalis (R 2), Mueller-Hinton broth, 37° C., 18 hours; read-out: Minimal Inhibitory Concentration (MIC). On the procedure:
(§9) Evaluation of the Minimal Inhibitory Concentration (MIC) in broth of 15 new substances for Gram+ bacterial strains.
(§10) The following strains were used: Staphylococcus aureus (4); Streptococcus faecalis (8); Bacillus pumilus (1); Bacillus subtilis (1).
(§11) MICs were determined by a standard microdilution test, using serial two-fold dilutions of the substances in Mueller-Hinton broth.
(§12) The inoculum was prepared from an overnight culture in Mueller-Hinton broth matching the 0.5 Mc Farland (turbidity) standard (BRAY W. E., Clinical Laboratory Methods, 5th Ed. C. V. MOSBY, St. Louis, Mo. 1957), and was adjusted to a final concentration of 5.0×10^4 colony-forming units/ml.
(§13) Equal volumes (0.1 ml) of both bacterial suspensions and substance solutions were distributed in microtiter plates (Falcon, 96 wells, round bottom), and then placed in a humidified incubator (37° C.) for 18 hours.
(§14) The results, in terms of MIC values, resistant strain number and mean MIC values versus susceptible strains, are illustrated in Tables 1-6.

Series [6] deals with Staphylococcus aureus (LC1). As to the kind of experiment: MIC in broth, Gram+ strains. The format is cell-based. The following applies: S. aureus (LC1), Mueller-Hinton broth, 37° C., 18 hours, read-out: Minimal Inhibitory Concentration (MIC). On the procedure:
as §9, §10, §11, §12, §13, §14

The subject of series [7] is Streptococcus faecalis (501). As to the kind of experiment: MIC in broth, Gram+ strains. The format is cell-based. The following applies: Enterococcus faecalis; S. faecalis (501), Mueller-Hinton broth, 37° C., 18 hours; read-out: Minimal Inhibitory Concentration (MIC). On the procedure:
as §9, §10, §11, §12, §13, §14

In series [8] the test system is Streptococcus faecalis (519). The series is described as follows: MIC in broth, Gram+ strains. As to conditions: Enterococcus faecalis; S. faecalis (519), Mueller-Hinton broth, 37° C., 18 hours; read-out: Minimal Inhibitory Concentration (MIC). The series is classed as cell-based. On the procedure:
as §9, §10, §11, §12, §13, §14

In series [9] the test system is Staphylococcus aureus (306 MR). The series is described as follows: MIC in broth, Gram+ strains. The series is classed as cell-based. The following applies: S. aureus (306 MR), Mueller-Hinton broth, 37° C., 18 hours, read-out: Minimal Inhibitory Concentration (MIC). On the procedure: as §9, §10, §11, §12, §13, §14
For series [10], the system named is Bacillus pumilus (CN 607). As to the kind of experiment: MIC in broth, Gram+ strains. The series is classed as cell-based. As to conditions: B. pumilus (CN 607), Mueller-Hinton broth, 37° C., 18 hours, read-out: Minimal Inhibitory Concentration (MIC). On the procedure: as §9, §10, §11, §12, §13, §14
In series [11] the test system is Streptococcus faecalis (UM). The series is described as follows: MIC in broth, Gram+ strains. The series is classed as cell-based. The following applies: Enterococcus faecalis; S. faecalis (UM), Mueller-Hinton broth, 37° C., 18 hours; read-out: Minimal Inhibitory Concentration (MIC). On the procedure:
as §9, §10, §11, §12, §13, §14

In series [12] the test system is Streptococcus faecalis (518). The series is described as follows: MIC in broth, Gram+ strains. The format is cell-based. The following applies: Enterococcus faecalis; S. faecalis (518), Mueller-Hinton broth, 37° C., 18 hours; read-out: Minimal Inhibitory Concentration (MIC). The method, then: as §9, §10, §11, §12, §13, §14
Series [13] deals with Staphylococcus aureus (303). The series is described as follows: MIC in broth, Gram+ strains. The format is cell-based. The following applies: S. aureus (303), Mueller-Hinton broth, 37° C., 18 hours, read-out: Minimal Inhibitory Concentration (MIC). On the procedure:
as §9, §10, §11, §12, §13, §14

Series [14] has as its system murine lymphoid organs (spleen and thymus). As to the kind of experiment: Test 2: weight of murine lymphoid organs after repeated oral administration. The following applies: 100 mg/kg/day for 7 consecutive days. The format is in vivo, mouse (male B6 D2 F1). The method, then:
Evaluation of the effect of repeated oral administrations of ST 722 on the weight of murine lymphoid organs (spleen and thymus).
Male B6 D2 F1 mice (C. River) aged 7 weeks (7-8 animals each group) were orally treated with the substance ST 722 at the dose of 100 mg/kg/day for 7 consecutive days. Twenty-four hours after the last administration, the animals were sacrificed, the organs removed and weighed.

Like-named read-outs stand apart in the source and are kept apart here.

Consider `CCCCCCCCCCCOC(=O)CC(C[N+](C)(C)C)OC(=O)CC(C)C` [ST 722, Isovaleryl-L-Carnitine Undecyl Ester Chloride], for which the MIC worked out at 100 µg/mL in [1] (Campylobacter fetus, ATCC27374, I = inoculum of 1.0 × 10^3); 3.12 µg/mL in series [2] (Campylobacter coli, LI048, I = inoculum of 1.0 × 10^3); 12.5 µg/mL in series [3] (I = inoculum of 1.0 × 10^3); 12.5 µg/mL in [3] (II = inoculum of 1.0 × 10^4); 1.56 µg/mL in series [4] (I = inoculum of 1.0 × 10^5 cells/ml, read-out: MIC in agar); 1.56 µg/mL in series [4] (agar medium, inoculum not given, read-out: MIC vs. H. pylori NCTC 11637). The MIC amounted to 3.12 µg/mL in series [5]; 1.56 µg/mL in [6]; 3.12 µg/mL in [7]; 3.12 µg/mL in series [8]; 6.25 µg/mL in series [9]; 1.56 µg/mL in series [10]. Besides, the figures for the MIC in series [11], in [12] and in [13] were 1.56 µg/mL, 3.12 µg/mL and 6.25 µg/mL, respectively. Moreover, the MIC in agar in series [1] (II = inoculum of 1.0 × 10^4) came out at 100 µg/mL; in [2] (II = inoculum of 1.0 × 10^4), 3.12 µg/mL; in [4] (II = inoculum of 1.0 × 10^6 cells/ml) it was 1.56 µg/mL. Besides, the “antibacterial activity for Helicobacter and Campylobacter” value in series [4] (agar, Helicobacter and Campylobacter strains) is “possess an antibacterial activity”. Further, the Body weight in series [14] was found to be 22.74 ± 0.37 g. The same compound had a Spleen weight in [14] of 77.88 ± 2.38 mg. The same compound yielded a Thymus weight in [14] of 52.88 ± 3.20 mg. The “immunotoxic effect on the parameters examined” value in series [14] is “did not provoke any immunotoxic effect”.
